How the values were obtained:
Test in all cases: KINOMEscan kinase binding assay
[1] = molecular target: T1, 384 kinases from the human genome (Homo sapiens, UniProt P42679); settings: kinase CTK (Entrez MATK)
T1 construct: purchased Eurofin/DiscoverX
In short: (§1)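 Competition binding (KINOMEscan) across 384 human kinases with compound at 10 µM. Ligand binding was expressed relative to DMSO (100%) as the average of duplicates from one experiment. S(10) selectivity score was derived.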

[2] = molecular target: T2, 384 kinases from the human genome (Homo sapiens, UniProt Q14012); settings: kinase CAMK1 (Entrez CAMK1)
T2 construct: purchased Eurofin/DiscoverX
In short: as §1

[3] = molecular target: T3, 384 kinases from the human genome (Homo sapiens, UniProt O15111); settings: kinase IKK-alpha (Entrez CHUK)
T3 construct: purchased Eurofin/DiscoverX
In short: as §1

[4] = molecular target: T4, 384 kinases from the human genome (Homo sapiens, UniProt Q00532); settings: kinase CDKL1 (Entrez CDKL1)
T4 construct: purchased Eurofin/DiscoverX
In short: as §1

[5] = molecular target: T5, 384 kinases from the human genome (Homo sapiens, UniProt Q14004); settings: kinase CDC2L5 (Entrez CDK13)
T5 construct: purchased Eurofin/DiscoverX
In short: as §1

[6] = molecular target: T6, 384 kinases from the human genome (Homo sapiens, UniProt Q9Y616); settings: kinase IRAK3 (Entrez IRAK3)
T6 construct: purchased Eurofin/DiscoverX
In short: as §1

[7] = molecular target: T7, 384 kinases from the human genome (Homo sapiens, UniProt Q8WXR4); settings: kinase MYO3B (Entrez MYO3B)
T7 construct: purchased Eurofin/DiscoverX
In short: as §1

[8] = molecular target: T8, 384 kinases from the human genome (Homo sapiens, UniProt P12931)
T8 construct: purchased Eurofin/DiscoverX
In short: as §1

[9] = molecular target: T9, 384 kinases from the human genome (Homo sapiens, UniProt P07948); settings: kinase LYN (Entrez LYN)
T9 construct: purchased Eurofin/DiscoverX
In short: as §1

[10] = molecular target: T10, 384 kinases from the human genome (Homo sapiens, UniProt P41743); settings: kinase PRKCI (Entrez PRKCI)
T10 construct: purchased Eurofin/DiscoverX
In short: as §1

[11] = molecular target: T11, 384 kinases from the human genome (Homo sapiens, UniProt Q9Y3S1); settings: kinase WNK2 (Entrez WNK2)
T11 construct: purchased Eurofin/DiscoverX
In short: as §1

[12] = molecular target: T12, 384 kinases from the human genome (Homo sapiens, UniProt Q05397); settings: kinase FAK (Entrez PTK2)
T12 construct: purchased Eurofin/DiscoverX
In short: as §1

[13] = molecular target: T13, 384 kinases from the human genome (Homo sapiens, UniProt Q9UQ88); settings: kinase CDC2L2 (Entrez CDC2L2)
T13 construct: purchased Eurofin/DiscoverX
In short: as §1

[14] = molecular target: T14, 384 kinases from the human genome (Homo sapiens, UniProt P52564); settings: kinase MEK6 (Entrez MAP2K6)
T14 construct: purchased Eurofin/DiscoverX
In short: as §1

[15] = molecular target: T15, 384 kinases from the human genome (Homo sapiens, UniProt P42336); settings: kinase PIK3CA (Entrez PIK3CA)
T15 construct: purchased Eurofin/DiscoverX
In short: as §1

[16] = molecular target: T16, 384 kinases from the human genome (Homo sapiens, UniProt Q5S007); settings: kinase LRRK2 (Entrez LRRK2)
T16 construct: purchased Eurofin/DiscoverX
In short: as §1

[17] = molecular target: T17, 384 kinases from the human genome (Homo sapiens, UniProt Q9HCP0); settings: kinase CSNK1G1 (Entrez CSNK1G1)
T17 construct: purchased Eurofin/DiscoverX
In short: as §1

[18] = molecular target: T18, 384 kinases from the human genome (Homo sapiens, UniProt P31749); settings: kinase AKT1 (Entrez AKT1)
T18 construct: purchased Eurofin/DiscoverX
In short: as §1

[19] = molecular target: T19, 384 kinases from the human genome (Homo sapiens, UniProt P07332); settings: kinase FES (Entrez FES)
T19 construct: purchased Eurofin/DiscoverX
In short: as §1

[20] = molecular target: T20, 384 kinases from the human genome (Homo sapiens, UniProt P08922); settings: kinase ROS1 (Entrez ROS1)
T20 construct: purchased Eurofin/DiscoverX
In short: as §1

[21] = molecular target: T21, 384 kinases from the human genome (Homo sapiens, UniProt Q8IYT8); settings: kinase ULK2 (Entrez ULK2)
T21 construct: purchased Eurofin/DiscoverX
In short: as §1

[22] = molecular target: T22, 384 kinases from the human genome (Homo sapiens, UniProt Q9NSY1); settings: kinase BIKE (Entrez BMP2K)
T22 construct: purchased Eurofin/DiscoverX
In short: as §1

[23] = molecular target: T23, 384 kinases from the human genome (Homo sapiens, UniProt Q96J92); settings: kinase WNK4 (Entrez WNK4)
T23 construct: purchased Eurofin/DiscoverX
In short: as §1

[24] = molecular target: T24, 384 kinases from the human genome (Homo sapiens, UniProt O75747); settings: kinase PIK3C2G (Entrez PIK3C2G)
T24 construct: purchased Eurofin/DiscoverX
In short: as §1

[25] = molecular target: T25, 384 kinases from the human genome (Homo sapiens, UniProt P49137); settings: kinase MAPKAPK2 (Entrez MAPKAPK2)
T25 construct: purchased Eurofin/DiscoverX
In short: as §1

[26] = molecular target: T26, 384 kinases from the human genome (Homo sapiens, UniProt P19784); settings: kinase CSNK2A2 (Entrez CSNK2A2)
T26 construct: purchased Eurofin/DiscoverX
In short: as §1

T8 sequence (P12931 whole entry): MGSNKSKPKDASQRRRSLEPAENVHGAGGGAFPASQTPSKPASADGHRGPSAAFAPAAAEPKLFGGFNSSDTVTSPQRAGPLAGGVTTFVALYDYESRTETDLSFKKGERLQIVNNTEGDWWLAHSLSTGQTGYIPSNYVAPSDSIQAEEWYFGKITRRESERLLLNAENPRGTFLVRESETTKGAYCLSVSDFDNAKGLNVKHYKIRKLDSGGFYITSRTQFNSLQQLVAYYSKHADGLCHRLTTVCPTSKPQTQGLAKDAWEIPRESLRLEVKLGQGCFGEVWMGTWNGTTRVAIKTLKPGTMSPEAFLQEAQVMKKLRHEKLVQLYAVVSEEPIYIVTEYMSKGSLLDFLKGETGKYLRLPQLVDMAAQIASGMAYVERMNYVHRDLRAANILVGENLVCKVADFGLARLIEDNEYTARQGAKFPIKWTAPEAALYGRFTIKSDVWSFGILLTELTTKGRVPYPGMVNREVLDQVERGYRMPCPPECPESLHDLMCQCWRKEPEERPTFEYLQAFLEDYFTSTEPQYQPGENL
T19 sequence (P07332 whole entry): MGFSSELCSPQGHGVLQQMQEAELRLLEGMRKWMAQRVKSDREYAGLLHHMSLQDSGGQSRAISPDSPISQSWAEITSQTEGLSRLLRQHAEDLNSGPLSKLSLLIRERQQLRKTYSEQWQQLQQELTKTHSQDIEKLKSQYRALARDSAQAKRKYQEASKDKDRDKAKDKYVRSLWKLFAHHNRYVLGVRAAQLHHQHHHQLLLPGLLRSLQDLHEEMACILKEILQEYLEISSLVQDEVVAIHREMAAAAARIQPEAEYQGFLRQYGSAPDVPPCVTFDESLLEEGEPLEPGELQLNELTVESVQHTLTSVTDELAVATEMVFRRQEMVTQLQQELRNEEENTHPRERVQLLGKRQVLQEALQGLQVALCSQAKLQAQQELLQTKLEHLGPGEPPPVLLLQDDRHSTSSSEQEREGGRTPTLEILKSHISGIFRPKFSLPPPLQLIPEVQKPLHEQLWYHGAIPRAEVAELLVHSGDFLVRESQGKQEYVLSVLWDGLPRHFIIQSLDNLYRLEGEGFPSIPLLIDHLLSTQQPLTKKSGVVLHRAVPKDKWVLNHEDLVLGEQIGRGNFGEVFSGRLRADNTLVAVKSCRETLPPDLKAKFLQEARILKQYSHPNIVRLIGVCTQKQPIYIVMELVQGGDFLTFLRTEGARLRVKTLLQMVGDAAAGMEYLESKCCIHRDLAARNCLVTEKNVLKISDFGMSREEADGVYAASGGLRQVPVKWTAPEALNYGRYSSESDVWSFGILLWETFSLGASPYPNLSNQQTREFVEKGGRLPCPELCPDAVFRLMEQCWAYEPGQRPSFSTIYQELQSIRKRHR
T24 sequence (O75747 whole entry): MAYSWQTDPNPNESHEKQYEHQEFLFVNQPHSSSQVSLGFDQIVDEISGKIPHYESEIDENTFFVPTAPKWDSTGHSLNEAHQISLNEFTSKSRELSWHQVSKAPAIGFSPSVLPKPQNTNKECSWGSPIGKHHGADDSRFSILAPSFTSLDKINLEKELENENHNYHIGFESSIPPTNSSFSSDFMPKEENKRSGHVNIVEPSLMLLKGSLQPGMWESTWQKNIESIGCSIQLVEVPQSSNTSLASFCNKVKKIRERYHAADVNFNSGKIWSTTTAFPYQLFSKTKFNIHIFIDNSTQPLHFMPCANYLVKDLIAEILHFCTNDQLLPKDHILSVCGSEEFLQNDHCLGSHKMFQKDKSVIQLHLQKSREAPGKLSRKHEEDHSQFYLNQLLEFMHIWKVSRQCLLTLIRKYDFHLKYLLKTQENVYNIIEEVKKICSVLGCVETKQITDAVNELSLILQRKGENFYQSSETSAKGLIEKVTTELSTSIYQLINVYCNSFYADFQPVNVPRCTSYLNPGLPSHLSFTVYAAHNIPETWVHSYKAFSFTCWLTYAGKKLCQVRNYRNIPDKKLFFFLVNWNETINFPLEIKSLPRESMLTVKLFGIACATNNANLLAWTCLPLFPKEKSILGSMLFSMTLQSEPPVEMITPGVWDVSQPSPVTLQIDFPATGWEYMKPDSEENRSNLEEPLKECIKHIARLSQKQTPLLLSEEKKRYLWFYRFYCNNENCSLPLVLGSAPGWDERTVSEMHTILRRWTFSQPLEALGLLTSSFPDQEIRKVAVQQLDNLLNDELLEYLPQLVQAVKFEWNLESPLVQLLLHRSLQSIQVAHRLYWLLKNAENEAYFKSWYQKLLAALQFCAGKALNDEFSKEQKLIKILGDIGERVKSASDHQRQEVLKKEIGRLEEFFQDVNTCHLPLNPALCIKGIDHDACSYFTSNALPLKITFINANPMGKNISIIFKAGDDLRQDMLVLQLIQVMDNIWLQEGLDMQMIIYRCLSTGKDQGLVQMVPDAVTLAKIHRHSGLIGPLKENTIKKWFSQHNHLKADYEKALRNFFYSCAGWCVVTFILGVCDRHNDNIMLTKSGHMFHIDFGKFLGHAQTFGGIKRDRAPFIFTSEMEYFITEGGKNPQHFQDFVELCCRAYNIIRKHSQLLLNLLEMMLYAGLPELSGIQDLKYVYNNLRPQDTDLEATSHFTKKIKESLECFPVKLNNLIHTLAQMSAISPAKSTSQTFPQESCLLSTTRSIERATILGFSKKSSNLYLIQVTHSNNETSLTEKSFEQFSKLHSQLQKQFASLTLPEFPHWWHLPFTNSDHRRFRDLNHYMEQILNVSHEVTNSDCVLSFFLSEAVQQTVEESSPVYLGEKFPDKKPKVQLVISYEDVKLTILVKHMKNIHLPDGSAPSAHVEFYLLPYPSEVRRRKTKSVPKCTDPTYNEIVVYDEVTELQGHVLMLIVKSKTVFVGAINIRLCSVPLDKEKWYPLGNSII
T12 sequence (Q05397 whole entry): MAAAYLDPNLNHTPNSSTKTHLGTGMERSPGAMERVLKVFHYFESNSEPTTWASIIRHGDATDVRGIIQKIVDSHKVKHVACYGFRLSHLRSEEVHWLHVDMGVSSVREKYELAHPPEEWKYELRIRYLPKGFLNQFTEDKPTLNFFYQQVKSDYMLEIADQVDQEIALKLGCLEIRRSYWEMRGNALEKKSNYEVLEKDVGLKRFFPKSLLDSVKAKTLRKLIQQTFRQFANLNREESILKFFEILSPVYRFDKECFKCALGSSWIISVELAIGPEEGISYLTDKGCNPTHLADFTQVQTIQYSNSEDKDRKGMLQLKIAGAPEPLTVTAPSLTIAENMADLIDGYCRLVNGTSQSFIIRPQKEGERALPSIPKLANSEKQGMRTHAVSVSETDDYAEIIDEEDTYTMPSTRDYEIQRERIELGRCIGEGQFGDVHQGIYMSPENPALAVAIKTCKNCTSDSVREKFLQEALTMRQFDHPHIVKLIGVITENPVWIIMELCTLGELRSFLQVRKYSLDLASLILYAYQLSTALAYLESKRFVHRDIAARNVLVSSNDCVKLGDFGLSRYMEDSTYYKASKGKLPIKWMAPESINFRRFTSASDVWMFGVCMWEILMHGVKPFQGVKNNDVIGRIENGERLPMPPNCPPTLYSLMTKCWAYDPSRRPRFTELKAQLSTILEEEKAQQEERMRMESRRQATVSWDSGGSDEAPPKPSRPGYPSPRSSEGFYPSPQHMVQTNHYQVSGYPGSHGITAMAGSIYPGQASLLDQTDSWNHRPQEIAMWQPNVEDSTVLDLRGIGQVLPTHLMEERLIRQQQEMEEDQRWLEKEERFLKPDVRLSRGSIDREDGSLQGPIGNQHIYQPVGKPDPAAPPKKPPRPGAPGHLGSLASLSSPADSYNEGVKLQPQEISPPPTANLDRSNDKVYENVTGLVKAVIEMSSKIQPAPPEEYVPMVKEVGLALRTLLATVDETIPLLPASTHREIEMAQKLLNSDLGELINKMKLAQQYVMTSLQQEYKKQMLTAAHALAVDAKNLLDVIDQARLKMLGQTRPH
T4 sequence (Q00532 whole entry): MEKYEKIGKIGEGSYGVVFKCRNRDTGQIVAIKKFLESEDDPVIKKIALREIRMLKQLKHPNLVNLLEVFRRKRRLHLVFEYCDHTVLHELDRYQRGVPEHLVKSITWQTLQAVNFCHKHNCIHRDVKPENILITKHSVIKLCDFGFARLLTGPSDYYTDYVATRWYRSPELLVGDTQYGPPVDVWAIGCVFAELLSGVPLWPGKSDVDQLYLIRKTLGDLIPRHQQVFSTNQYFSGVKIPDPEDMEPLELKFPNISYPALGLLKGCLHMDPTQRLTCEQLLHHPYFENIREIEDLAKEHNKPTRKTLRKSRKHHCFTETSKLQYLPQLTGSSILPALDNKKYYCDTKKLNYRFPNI
T25 sequence (P49137 whole entry): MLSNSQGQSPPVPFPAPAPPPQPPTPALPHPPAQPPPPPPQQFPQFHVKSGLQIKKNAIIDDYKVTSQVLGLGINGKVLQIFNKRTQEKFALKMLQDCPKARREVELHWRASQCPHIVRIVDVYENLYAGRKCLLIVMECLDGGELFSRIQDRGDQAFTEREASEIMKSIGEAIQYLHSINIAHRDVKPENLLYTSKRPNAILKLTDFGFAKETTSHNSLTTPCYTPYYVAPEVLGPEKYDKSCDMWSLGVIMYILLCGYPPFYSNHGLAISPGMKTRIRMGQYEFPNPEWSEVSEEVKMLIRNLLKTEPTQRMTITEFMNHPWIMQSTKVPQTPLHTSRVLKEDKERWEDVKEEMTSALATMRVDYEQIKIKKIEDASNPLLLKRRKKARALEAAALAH
T2 sequence (Q14012 whole entry): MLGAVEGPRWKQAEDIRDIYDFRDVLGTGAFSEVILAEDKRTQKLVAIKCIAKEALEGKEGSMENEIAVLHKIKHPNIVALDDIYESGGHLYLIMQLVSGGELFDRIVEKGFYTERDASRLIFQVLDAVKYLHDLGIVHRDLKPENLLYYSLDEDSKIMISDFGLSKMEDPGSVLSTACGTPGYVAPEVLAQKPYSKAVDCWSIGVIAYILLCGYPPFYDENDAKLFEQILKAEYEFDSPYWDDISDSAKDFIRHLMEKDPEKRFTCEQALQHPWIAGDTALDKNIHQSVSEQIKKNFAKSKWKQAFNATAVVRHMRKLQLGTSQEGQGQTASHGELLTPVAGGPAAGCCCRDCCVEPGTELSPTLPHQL

`CC(C)C(=O)N1CCN(c2ccc(NC(=O)c3cc4ccccc4o3)cc2Cl)CC1` [Compound 21] was tested, and the “Percent Control” value [1] was 95%, the “Percent Control” value [2] was 95% and the “Percent Control” value [3] was 100%. For the same compound, the “Percent Control” value [4] was 100%, the “Percent Control” value [5] was 100% and the “Percent Control” value [6] was 67%. The “Percent Control” value [7] was 58%, the “binding to Src” value ([8]; 10 µM of 21) was “failed to bind” and the “Percent Control” value ([8]; kinase SRC (Entrez SRC)) was 100%. The “Percent Control” value [9] was 100%, the “Percent Control” value [10] was 100% and the “Percent Control” value [11] was 100%. For the same compound, the “Percent Control” value [12] was 100%, the “Percent Control” value [13] was 95% and the “Percent Control” value [14] was 97%. For the same compound, the “Percent Control” value [15] was 100%, the “Percent Control” value [16] was 89% and the “Percent Control” value [17] was 87%. The “Percent Control” value [18] was 97%, the “Percent Control” value [19] was 73% and the “Percent Control” value [20] was 94%. The “Percent Control” value [21] was 95%, the “Percent Control” value [22] was 100% and the “Percent Control” value [23] was 100%. The “Percent Control” value [24] was 100%, the “Percent Control” value [25] was 100% and the “Percent Control” value [26] was 92%.

— publication PMC8333425, “Discovery of a dual Ras and ARF6 inhibitor from a GPCR endocytosis screen” (Nature Communications, 2021)
